Assays:
[1] = biological target: T1, Muscarinic acetylcholine receptor M5 (Homo sapiens, UniProt P08912); assay: Antagonist activity at recombinant human M5 receptor expressed in CHO cells co-expressing Gqi5 by calcium mobilization assay; format: functional, cell-based
T1 sequence (P08912 whole entry): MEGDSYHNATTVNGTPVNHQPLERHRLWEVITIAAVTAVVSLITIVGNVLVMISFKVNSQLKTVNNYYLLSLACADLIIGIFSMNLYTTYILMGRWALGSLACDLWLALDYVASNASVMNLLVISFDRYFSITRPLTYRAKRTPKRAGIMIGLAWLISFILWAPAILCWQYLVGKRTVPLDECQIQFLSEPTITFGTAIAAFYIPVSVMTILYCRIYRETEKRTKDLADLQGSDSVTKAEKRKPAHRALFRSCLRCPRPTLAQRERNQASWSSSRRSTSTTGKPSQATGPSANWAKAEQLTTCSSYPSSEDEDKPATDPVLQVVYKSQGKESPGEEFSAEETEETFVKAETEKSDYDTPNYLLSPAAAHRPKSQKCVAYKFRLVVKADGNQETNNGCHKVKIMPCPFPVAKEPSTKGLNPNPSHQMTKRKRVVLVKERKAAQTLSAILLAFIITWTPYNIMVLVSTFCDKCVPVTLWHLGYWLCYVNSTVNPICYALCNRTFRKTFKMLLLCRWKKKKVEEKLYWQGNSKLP

[2] = biological target: T2, Muscarinic acetylcholine receptor M4 (Homo sapiens, UniProt P08173); assay: Antagonist activity at recombinant human M4 receptor expressed in CHO cells co-expressing Gqi5 by calcium mobilization assay; format: functional, cell-based
T2 sequence (P08173 whole entry): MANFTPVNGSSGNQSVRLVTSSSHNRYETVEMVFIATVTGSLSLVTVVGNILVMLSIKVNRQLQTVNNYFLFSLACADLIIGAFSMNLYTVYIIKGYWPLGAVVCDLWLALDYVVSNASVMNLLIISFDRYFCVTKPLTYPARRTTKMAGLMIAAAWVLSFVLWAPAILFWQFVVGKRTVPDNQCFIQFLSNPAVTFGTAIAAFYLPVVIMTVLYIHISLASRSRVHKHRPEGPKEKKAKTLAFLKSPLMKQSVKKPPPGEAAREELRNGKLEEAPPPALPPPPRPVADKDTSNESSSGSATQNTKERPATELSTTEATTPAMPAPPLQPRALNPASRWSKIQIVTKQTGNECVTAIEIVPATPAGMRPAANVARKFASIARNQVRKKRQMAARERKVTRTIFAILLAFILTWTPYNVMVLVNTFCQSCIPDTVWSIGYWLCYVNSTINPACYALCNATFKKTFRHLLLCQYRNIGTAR

[3] = biological target: T3, Muscarinic acetylcholine receptor M3 (Homo sapiens, UniProt P20309); assay: Antagonist activity at recombinant human M3 receptor expressed in CHO cells co-expressing Gqi5 by calcium mobilization assay; format: functional, cell-based
Target sequence in this assay (P20309 whole entry): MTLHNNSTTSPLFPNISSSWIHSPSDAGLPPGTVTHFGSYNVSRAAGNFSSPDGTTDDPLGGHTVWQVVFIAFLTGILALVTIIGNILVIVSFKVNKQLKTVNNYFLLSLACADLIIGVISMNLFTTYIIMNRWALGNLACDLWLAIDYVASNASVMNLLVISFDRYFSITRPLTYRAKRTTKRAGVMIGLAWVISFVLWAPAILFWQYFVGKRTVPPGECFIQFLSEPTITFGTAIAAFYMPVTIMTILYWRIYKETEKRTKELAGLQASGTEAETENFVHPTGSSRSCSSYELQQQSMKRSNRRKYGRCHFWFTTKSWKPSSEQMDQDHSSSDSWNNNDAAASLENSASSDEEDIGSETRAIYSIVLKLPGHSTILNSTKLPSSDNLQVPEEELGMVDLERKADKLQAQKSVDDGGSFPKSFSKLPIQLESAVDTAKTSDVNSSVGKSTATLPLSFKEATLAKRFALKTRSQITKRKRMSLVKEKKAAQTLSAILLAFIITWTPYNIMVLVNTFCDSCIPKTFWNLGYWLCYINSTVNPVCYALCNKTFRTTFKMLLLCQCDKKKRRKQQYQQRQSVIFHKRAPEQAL

[4] = biological target: T4, Muscarinic acetylcholine receptor M5 (Homo sapiens) (UniProt P08912); assay: Antagonist activity at recombinant human M5 receptor expressed in CHO cells co-expressing Gqi5 by calcium mobilization assay relative to acetylcholine; format: functional, cell-based
T4 sequence (whole entry): T1 sequence (P08912 whole entry)

[5] = biological target: T5, Muscarinic acetylcholine receptor M2 (Homo sapiens, UniProt P08172); assay: Antagonist activity at recombinant human M2 receptor expressed in CHO cells co-expressing Gqi5 by calcium mobilization assay; format: functional, cell-based
T5 sequence (P08172 whole entry): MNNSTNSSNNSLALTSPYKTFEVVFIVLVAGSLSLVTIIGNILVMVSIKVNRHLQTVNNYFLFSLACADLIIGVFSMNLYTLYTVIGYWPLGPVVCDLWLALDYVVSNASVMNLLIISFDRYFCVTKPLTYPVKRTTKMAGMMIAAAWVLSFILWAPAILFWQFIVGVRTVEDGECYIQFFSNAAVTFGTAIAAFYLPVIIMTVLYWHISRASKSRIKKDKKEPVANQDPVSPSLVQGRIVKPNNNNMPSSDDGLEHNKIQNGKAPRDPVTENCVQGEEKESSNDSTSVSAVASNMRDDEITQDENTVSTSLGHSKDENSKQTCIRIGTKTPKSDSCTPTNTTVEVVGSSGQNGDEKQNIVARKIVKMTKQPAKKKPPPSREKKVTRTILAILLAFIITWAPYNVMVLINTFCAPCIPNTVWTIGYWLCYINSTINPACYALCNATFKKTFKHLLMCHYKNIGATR

[6] = biological target: T6, Muscarinic acetylcholine receptor M2 (Homo sapiens) (UniProt P08172); assay: Antagonist activity at recombinant human M2 receptor expressed in CHO cells co-expressing Gqi5 by calcium mobilization assay relative to acetylcholine; format: functional, cell-based
T6 sequence (whole entry): T5 sequence (P08172 whole entry)

[7] = biological target: T7, Muscarinic acetylcholine receptor M1 (Homo sapiens) (UniProt P11229); assay: Antagonist activity at recombinant human M1 receptor expressed in CHO cells co-expressing Gqi5 by calcium mobilization assay relative to acetylcholine; format: functional, cell-based
T7 sequence (whole entry): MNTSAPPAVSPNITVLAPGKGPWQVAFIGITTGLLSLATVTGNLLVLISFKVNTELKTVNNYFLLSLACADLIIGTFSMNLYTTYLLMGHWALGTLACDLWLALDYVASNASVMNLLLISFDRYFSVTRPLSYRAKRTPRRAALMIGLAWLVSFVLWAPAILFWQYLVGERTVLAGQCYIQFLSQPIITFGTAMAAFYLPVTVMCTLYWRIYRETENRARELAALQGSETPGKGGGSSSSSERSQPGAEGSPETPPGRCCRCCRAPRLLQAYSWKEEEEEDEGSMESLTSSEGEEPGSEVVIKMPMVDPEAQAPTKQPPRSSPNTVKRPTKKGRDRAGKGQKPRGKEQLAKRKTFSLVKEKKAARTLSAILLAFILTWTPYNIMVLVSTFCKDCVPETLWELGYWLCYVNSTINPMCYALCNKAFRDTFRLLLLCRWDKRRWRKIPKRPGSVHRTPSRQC

[8] = biological target: T8, Muscarinic acetylcholine receptor M4 (Homo sapiens) (UniProt P08173); assay: Antagonist activity at recombinant human M4 receptor expressed in CHO cells co-expressing Gqi5 by calcium mobilization assay relative to acetylcholine; format: functional, cell-based
T8 sequence (whole entry): T2 sequence (P08173 whole entry)

[9] = biological target: T3, Muscarinic acetylcholine receptor M3; assay: Antagonist activity at recombinant human M3 receptor expressed in CHO cells co-expressing Gqi5 by calcium mobilization assay relative to acetylcholine; format: functional, cell-based
Target sequence in this assay (P20309 whole entry, looked up): as the sequence (P20309 whole entry) above

[10] = biological target: T9, Muscarinic acetylcholine receptor M1 (Homo sapiens, UniProt P11229); assay: Antagonist activity at recombinant human M1 receptor expressed in CHO cells co-expressing Gqi5 by calcium mobilization assay; format: functional, cell-based
T9 sequence (P11229 whole entry): T7 sequence (whole entry)

[11] = Brain to plasma partition coefficient, Kp of the compound in rat; format: ADME
[12] = Ratio of unbound brain to plasma concentration in rat; format: ADME
[13] = system: Brain; assay: Unbound brain concentration in rat; format: ADME, tissue-based; settings: in vivo
[14] = system: Plasma; assay: Unbound plasma concentration in rat; format: ADME, cell-free
[15] = biological target: T10, Muscarinic acetylcholine receptor M4 (Rattus norvegicus, UniProt P08485); assay: Antagonist activity at rat M4 receptor by calcium mobilization assay; format: functional
T10 sequence (P08485 whole entry): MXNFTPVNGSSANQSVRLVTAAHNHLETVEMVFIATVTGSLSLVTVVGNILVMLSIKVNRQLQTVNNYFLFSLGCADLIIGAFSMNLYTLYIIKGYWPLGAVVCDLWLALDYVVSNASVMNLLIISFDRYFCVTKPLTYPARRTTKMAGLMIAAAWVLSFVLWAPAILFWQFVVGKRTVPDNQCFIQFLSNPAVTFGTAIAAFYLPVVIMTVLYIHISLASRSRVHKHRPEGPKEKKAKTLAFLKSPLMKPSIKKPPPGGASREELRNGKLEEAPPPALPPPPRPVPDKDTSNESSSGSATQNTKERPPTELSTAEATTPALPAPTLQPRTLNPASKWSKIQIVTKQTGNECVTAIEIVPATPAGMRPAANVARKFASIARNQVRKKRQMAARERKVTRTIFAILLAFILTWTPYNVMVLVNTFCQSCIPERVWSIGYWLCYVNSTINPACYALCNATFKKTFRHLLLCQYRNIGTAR

[16] = system: Plasma; assay: Unbound plasma concentration in human; format: ADME, cell-free
[17] = biological target: T11, Muscarinic acetylcholine receptor M4 (Rattus norvegicus) (UniProt P08485); assay: Antagonist activity at rat M4 receptor by calcium mobilization assay relative to acetylcholine; format: functional
T11 sequence (whole entry): T10 sequence (P08485 whole entry)

[18] = biological target: T2, Muscarinic acetylcholine receptor M4; assay: Displacement of [3H]-NMS from recombinant human M4 receptor expressed in CHO cell membranes

| Compound | IC50 [1] [nM] | IC50 ([2]; read-out: IC50) [nM] | IC50 ([2]; read-out: pIC50 (converted)) [nM] | IC50 [3] [nM] | IC50 [5] [nM] | Emin [8] [%] | IC50 [10] [nM] | further results |
| --- | --- | --- | --- | --- | --- | --- | --- | --- |
| O=C(C1CCN(c2cc(Oc3ccc(Cl)cc3)ncn2)CC1)N1CCc2ccccc2C1 | 695 | 140 | 132 | 365 | 352 | 3 | 313 | Emin [4]: < 6%; Emin [6]: < 6%; Emin [7]: < 6%; Emin [9]: < 6% |
| O=C(C1CCN(c2cc(Oc3ccc(F)cc3F)ncn2)CC1)N1CCC2CCCCC2C1 (stereo not drawn) | – | 410 | – | – | – | 5.1 | – | – |
| O=C(C1CCN(c2cc(Oc3ccccc3F)ncn2)CC1)N1CCc2ccccc2C1 | 732 | 130 | 123 | 404 | 384 | 3.2 | 322 | Emin [4]: < 6%; Kp ([11]; brain/plasma, read-out: Kp): 0.68; Emin [6]: < 6%; Emin [7]: < 6%; Emin [9]: < 6%; Kp uu ([12]; brain/plasma, read-out: K(p,uu,brain)): 0.75 |
| CCc1ccc(Oc2cc(N3CCC(C(=O)N4CCc5ccccc5C4)CC3)ncn2)cc1 | < 1500 | 380 | 347 | < 1500 | < 1500 | 5.3 | < 1500 | Fu [13]: 0.001; Fu [14]: 0.004; IC50 ([15]; read-out: IC50): 590 nM; IC50 ([15]; read-out: pIC50 (converted)): 562 nM; Fu [16]: 0.001; Kp [11]: 1.45; Emin [17]: 13.1%; K(p,uu,brain) ([12]; brain): 0.36 |
| COc1ccc(Oc2cc(N3CCC(C(=O)N4CCc5ccccc5C4)CC3)ncn2)cc1 | – | 460 | – | – | – | 5.3 | – | – |
| O=C(C1CCN(c2cc(Oc3ccc(Cl)cc3F)ncn2)CC1)N1CCc2ccccc2C1 | – | 150 | – | – | – | 3.1 | – | – |
| O=C(C1CCN(c2cc(Oc3ccc(F)cc3F)ncn2)CC1)N1CCc2ccccc2C1 | 510 | 100 | – | 380 | 330 | 3 | 250 | Emin [4]: < 6%; Emin [6]: < 6%; Emin [7]: < 6%; Ki [18]: 10.3 nM; Emin [9]: < 6% |
| O=C(C1CCN(c2cc(Oc3ccc4c(c3)OCO4)ncn2)CC1)N1CCc2ccccc2C1 | – | 510 | – | – | – | 4.1 | – | – |
| O=C(C1CCN(c2cc(Oc3ccc(F)cc3F)ncn2)CC1)N1CCCc2ccccc2C1 | – | 1040 | – | – | – | 6 | – | – |
| O=C(C1CCN(c2cc(Oc3cc(F)ccc3F)ncn2)CC1)N1CCc2ccccc2C1 | – | 80 | – | – | – | 3.1 | – | – |
| O=C(C1CCN(c2cc(Oc3ccc(F)cc3)ncn2)CC1)N1CCc2ccccc2C1 | – | 240 | 229 | – | – | 3.5 | – | – |
| O=C(C1CCN(c2cc(Oc3ccccc3)ncn2)CC1)N1CCc2ccccc2C1 | – | 650 | 617 | – | – | 2.7 | – | – |

— ChEMBL document CHEMBL4017477, “Synthesis and evaluation of 4,6-disubstituted pyrimidines as CNS penetrant pan-muscarinic antagonists with a novel chemotype” (Bioorg Med Chem Lett, 2017)
